In ChEMBL document CHEMBL3991601, “The target landscape of clinical kinase drugs” (Science, 2017):
Activity calls are given as the source filed them. Cut-off read from the data, not from the text of the source, for most assays here: actives have a measured Kd and inactives only a lower limit.

Experiments:
[1] = target: T1, ATP-dependent RNA helicase DDX42 (Homo sapiens, UniProt Q86XP3)
T1 sequence (Q86XP3 whole entry): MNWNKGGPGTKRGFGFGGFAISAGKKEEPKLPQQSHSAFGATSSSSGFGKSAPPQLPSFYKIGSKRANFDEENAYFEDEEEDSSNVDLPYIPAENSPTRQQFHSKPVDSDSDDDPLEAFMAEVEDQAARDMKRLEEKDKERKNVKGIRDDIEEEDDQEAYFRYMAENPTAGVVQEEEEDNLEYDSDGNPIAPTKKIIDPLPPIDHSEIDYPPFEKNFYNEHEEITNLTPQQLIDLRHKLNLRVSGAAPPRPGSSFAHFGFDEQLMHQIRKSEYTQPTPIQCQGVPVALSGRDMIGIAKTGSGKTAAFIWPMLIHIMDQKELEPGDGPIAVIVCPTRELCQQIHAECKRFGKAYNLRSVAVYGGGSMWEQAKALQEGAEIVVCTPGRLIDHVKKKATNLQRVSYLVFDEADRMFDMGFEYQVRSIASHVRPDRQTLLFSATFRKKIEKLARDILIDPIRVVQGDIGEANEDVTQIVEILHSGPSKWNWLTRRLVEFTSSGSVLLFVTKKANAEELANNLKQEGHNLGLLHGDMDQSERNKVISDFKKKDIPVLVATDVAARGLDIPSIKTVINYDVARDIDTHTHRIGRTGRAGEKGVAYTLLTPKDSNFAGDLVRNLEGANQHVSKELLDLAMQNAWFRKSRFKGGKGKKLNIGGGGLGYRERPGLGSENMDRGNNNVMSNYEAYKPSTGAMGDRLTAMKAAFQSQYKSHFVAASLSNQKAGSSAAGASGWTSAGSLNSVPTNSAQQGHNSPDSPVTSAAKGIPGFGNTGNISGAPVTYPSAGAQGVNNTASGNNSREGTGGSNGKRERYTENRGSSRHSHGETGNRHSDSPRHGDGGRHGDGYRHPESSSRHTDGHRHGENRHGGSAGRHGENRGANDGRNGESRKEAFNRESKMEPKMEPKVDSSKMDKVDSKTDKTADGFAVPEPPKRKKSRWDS

[2] = target: T2, Serine/threonine-protein kinase LATS1 (Homo sapiens, UniProt O95835)
T2 sequence (O95835 whole entry): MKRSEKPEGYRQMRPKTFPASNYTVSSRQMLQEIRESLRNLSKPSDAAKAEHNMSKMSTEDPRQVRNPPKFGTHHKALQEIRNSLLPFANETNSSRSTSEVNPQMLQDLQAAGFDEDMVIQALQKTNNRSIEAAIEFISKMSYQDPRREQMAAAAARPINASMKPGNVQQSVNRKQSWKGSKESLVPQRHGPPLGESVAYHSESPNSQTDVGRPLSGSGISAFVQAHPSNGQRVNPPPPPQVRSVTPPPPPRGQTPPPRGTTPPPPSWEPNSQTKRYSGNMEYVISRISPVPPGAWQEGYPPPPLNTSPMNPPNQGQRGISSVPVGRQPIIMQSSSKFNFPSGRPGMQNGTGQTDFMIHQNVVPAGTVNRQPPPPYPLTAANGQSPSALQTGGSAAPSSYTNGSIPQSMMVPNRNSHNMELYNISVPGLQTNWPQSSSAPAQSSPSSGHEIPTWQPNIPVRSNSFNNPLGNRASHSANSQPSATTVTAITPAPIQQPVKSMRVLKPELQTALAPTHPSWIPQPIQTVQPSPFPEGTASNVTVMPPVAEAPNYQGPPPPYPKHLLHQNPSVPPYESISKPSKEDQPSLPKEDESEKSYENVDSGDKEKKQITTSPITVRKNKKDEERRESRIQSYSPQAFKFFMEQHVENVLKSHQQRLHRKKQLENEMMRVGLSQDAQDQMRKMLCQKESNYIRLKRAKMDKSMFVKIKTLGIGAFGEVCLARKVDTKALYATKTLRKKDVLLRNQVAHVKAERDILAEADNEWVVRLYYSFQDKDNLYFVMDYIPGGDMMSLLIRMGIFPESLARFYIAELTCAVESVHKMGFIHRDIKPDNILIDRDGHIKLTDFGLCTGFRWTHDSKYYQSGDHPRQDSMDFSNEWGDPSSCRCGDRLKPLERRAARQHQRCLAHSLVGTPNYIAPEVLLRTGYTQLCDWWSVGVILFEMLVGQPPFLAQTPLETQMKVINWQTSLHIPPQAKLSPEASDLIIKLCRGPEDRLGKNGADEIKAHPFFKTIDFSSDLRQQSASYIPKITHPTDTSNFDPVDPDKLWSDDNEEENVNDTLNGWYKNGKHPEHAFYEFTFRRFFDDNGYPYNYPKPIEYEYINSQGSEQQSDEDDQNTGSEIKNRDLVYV

[3] = target: Dual specificity mitogen-activated protein kinase kinase 1 (Homo sapiens, UniProt Q02750)
Sequence of Dual specificity mitogen-activated protein kinase kinase 1 (Q02750 whole entry): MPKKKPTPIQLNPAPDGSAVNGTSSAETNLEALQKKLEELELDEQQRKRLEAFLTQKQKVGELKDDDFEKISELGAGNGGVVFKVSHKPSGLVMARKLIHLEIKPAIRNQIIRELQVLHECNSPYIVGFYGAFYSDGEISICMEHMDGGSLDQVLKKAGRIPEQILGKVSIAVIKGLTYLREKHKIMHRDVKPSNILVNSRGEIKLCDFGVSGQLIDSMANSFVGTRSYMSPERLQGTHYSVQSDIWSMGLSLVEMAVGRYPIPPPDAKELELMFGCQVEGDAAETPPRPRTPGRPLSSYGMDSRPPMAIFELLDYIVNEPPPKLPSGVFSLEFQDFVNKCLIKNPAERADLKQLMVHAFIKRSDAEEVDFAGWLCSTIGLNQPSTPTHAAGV

[4] = target: T3, Serine/threonine-protein kinase Nek3 (Homo sapiens, UniProt P51956)
T3 sequence (P51956 whole entry): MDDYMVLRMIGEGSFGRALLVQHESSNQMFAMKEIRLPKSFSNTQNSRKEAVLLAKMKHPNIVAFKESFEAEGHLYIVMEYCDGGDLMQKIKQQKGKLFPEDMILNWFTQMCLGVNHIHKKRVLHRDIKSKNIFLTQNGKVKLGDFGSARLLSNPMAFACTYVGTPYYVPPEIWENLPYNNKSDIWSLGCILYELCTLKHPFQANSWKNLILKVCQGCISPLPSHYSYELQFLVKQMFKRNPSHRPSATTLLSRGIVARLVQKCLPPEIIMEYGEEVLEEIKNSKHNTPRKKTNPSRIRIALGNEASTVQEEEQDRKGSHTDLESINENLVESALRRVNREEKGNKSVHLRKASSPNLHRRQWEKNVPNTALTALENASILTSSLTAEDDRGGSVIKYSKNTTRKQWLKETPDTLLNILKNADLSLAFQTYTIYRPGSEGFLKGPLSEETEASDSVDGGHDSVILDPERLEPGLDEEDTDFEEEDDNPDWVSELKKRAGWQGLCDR

[5] = target: Ribosomal protein S6 kinase alpha-4 (Homo sapiens, UniProt O75676)
Sequence of Ribosomal protein S6 kinase alpha-4 (O75676 whole entry): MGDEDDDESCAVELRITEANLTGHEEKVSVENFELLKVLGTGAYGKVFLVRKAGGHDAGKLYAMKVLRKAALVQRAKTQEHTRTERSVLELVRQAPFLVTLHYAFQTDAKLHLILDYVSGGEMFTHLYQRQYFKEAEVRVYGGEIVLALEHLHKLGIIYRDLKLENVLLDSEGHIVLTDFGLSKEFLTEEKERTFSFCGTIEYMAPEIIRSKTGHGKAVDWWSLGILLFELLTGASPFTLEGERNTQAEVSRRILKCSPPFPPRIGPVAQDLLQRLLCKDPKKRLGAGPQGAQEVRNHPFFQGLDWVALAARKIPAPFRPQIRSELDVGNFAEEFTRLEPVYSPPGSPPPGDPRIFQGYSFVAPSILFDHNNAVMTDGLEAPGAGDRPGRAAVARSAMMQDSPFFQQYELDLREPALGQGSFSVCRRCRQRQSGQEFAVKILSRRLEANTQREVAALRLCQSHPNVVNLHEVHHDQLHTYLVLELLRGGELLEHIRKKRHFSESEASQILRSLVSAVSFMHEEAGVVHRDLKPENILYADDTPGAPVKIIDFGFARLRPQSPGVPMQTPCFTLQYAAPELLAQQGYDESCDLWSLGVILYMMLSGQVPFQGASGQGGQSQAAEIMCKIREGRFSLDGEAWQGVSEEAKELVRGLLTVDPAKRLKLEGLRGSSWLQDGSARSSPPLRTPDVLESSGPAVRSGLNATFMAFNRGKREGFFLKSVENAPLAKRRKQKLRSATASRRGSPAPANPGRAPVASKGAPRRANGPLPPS

[6] = target: Serine/threonine-protein kinase MRCK beta (Homo sapiens, UniProt Q9Y5S2)
Sequence of Serine/threonine-protein kinase MRCK beta (Q9Y5S2 whole entry): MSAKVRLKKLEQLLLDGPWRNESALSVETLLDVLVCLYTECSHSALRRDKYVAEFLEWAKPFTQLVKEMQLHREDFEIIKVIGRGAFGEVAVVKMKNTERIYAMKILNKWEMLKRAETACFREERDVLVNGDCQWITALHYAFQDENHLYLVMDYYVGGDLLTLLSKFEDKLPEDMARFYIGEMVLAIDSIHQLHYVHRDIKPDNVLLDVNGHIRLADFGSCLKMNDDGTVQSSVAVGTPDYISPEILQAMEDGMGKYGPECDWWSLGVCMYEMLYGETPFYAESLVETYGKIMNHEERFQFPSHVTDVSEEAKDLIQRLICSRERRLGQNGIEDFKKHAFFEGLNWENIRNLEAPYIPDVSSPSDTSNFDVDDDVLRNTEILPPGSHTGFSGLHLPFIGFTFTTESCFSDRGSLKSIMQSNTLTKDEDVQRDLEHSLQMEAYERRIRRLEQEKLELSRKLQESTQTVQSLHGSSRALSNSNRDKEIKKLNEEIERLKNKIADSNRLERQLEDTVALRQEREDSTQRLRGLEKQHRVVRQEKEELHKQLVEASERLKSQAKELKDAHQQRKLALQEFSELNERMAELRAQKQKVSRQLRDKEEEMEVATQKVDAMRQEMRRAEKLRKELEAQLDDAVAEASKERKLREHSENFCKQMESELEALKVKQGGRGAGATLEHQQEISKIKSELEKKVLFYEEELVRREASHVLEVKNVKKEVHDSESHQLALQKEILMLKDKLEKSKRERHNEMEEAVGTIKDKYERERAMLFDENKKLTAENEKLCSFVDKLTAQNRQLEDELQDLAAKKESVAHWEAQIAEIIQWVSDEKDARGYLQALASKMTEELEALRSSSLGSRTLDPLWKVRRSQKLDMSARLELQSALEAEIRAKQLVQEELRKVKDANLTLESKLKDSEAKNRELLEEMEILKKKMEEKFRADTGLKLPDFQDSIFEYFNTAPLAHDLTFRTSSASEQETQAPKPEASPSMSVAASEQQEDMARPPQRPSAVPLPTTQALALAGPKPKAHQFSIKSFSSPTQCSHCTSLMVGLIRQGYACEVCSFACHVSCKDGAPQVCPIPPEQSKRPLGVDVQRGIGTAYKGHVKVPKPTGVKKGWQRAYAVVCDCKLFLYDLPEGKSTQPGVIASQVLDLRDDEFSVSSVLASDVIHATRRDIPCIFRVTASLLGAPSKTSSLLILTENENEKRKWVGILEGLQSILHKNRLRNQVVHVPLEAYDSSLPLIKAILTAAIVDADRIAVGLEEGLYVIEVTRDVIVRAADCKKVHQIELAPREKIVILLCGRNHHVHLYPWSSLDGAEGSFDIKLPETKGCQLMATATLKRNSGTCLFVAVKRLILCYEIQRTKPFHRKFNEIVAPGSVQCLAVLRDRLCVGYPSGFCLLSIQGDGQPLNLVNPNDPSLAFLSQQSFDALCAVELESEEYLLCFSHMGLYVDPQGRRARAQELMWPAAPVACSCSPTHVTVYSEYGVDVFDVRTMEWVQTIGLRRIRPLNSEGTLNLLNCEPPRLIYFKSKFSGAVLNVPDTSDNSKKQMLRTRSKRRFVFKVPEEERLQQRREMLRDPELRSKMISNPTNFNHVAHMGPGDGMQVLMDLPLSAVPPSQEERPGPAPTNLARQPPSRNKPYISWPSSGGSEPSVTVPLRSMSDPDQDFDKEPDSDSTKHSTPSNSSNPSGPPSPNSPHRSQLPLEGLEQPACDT

[7] = target: Atypical kinase COQ8A, mitochondrial (Homo sapiens, UniProt Q8NI60)
Sequence of Atypical kinase COQ8A, mitochondrial (Q8NI60 whole entry): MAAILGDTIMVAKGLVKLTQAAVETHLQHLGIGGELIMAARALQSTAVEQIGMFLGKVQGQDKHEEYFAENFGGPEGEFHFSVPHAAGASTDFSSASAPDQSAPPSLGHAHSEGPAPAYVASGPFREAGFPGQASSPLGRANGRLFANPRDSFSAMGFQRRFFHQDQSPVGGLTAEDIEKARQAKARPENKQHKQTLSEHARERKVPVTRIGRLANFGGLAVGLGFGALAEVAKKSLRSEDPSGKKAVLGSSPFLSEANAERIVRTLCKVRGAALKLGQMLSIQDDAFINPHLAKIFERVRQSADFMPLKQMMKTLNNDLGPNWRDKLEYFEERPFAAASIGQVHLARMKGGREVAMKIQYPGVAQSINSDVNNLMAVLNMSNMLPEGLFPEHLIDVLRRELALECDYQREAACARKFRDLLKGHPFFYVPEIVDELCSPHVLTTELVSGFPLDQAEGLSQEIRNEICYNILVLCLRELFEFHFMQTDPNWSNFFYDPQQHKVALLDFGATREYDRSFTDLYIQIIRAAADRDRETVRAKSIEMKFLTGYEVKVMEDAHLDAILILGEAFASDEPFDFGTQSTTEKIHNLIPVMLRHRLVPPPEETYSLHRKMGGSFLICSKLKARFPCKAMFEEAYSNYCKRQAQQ

[8] = target: Maternal embryonic leucine zipper kinase (Homo sapiens, UniProt Q14680)
Sequence of Maternal embryonic leucine zipper kinase (Q14680 whole entry): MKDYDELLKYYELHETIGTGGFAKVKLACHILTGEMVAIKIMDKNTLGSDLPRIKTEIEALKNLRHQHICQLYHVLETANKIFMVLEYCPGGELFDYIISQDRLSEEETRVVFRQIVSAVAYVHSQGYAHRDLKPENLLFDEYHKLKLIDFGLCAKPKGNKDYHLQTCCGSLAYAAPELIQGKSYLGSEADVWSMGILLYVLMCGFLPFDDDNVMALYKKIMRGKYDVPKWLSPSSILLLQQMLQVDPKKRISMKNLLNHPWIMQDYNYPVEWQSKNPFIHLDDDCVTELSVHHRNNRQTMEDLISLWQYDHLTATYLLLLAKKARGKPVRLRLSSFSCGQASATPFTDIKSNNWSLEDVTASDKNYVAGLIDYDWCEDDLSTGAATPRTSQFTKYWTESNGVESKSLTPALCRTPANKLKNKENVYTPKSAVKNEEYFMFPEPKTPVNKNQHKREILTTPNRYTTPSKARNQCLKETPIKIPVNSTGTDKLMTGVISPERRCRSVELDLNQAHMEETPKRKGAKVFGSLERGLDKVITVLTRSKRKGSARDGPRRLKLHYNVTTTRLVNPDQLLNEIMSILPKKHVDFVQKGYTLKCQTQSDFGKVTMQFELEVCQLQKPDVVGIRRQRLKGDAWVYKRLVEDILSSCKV

Measured: Kd
Note: in the data inactive means no Kd found up to 30 µM.

O=c1sn(-c2cccc3ccccc23)c(=O)n1Cc1ccccc1 [TIDEGLUSIB]
inactive: [1] > 30 µM | [2] > 30 µM | [3] > 30 µM | [4] > 30 µM | [5] > 30 µM | [6] > 30 µM | [7] > 30 µM | [8] > 30 µM

CO[C@H]1C[C@@H]2CC[C@@H](C)[C@@](O)(O2)C(=O)C(=O)N2CCCC[C@H]2C(=O)O[C@H]([C@H](C)C[C@@H]2CC[C@@H](OCCO)[C@H](OC)C2)CC(=O)[C@H](C)/C=C(\C)[C@@H](O)[C@@H](OC)C(=O)[C@H](C)C[C@H](C)/C=C/C=C/C=C/1C [EVEROLIMUS]
inactive: [1] > 30 µM | [2] > 30 µM | [3] > 30 µM | [4] > 30 µM | [5] > 30 µM | [6] > 30 µM | [7] > 30 µM | [8] > 30 µM

CN(C)C(=O)c1cc2cnc(Nc3ccc(N4CCNCC4)cn3)nc2n1C1CCCC1 [RIBOCICLIB]
inactive: [1] > 30 µM | [2] > 30 µM | [3] > 30 µM | [4] > 30 µM | [5] > 30 µM | [6] > 30 µM | [7] > 30 µM | [8] > 30 µM
